From patent US4929601A, “Tripeptides useful as immunostimulants as well as in the prevention of metastases” (Ellem Industria Farmaceutica, S.p.A., priority 1987, dated 1990)

What was measured:
[1] = test system: B16-BL6 murine melanoma cells; assay: Antimetastatic activity: pulmonary colonization by melanoma cells inoculated in mice; assay type: in vivo, female C57BL/6 mice
From the text: The capacity of the tripeptide […] of inhibiting the pulmonary colonization by B16-BL6 murine melanoma cells inoculated in female C57BL/6 mice having an average body weight of 20 g (10 animals per group) has been evaluated. […] Fourteen days later, the animals have been sacrificed, the lungs have been withdrawn and examined after formalin fixation for the presence of surface melanoma colonies. A group of control animals has only been treated with the tumour cell suspension.

Human T lymphocytes = assay: Effect on cell cycle (propidium iodide, flow cytometer); assay type: cell-based; settings: 1 μg/ml, 72 hours with PHA
Protocol: Human T lymphocytes have been incubated for 72 hours in presence of PHA and the tripeptides under examination (1 μg/ml). DNA has then been stained with propidium iodide and cells have been analyzed with a flow cytometer.

[2] = test system: PHA-stimulated human T lymphocytes; assay: RNA synthesis in PHA-stimulated human T lymphocytes in vitro (3H-uridine); assay type: cell-based; settings: for RNA synthesis, 3H-uridine c.p.m. (mean): control 3835
Protocol: Human T lymphocytes, incubated in vitro for 24 hours in presence of 0.5% phytohemagglutinin (PHA) and different concentrations of the tripeptides under examination, have been analyzed for RNA synthesis (cell activation) by means of 3H-uridine labelling.

[3] = test system: spleen cells of normal mice; assay: Induction of Thy 1.2 antigen in spleen cells of normal mice; assay type: cell-based
From the text: The capacity of the tripeptide Arg-Gly-Asp to induce in vitro the differentiation of T cell precursors into lymphocytes expressing T cell markers has been tested by evidencing the induction of Thy 1.2 membrane antigen.
Spleen cells of normal mice have been used as source of "null" cells.
Mice were killed by cervical dislocation.
Spleens were aseptically removed and finely minced with forceps in Hank's balanced salt solution (HBSS) (Gibco Ltd, Paisley, Scotland). A suspension of single cells was obtained through filtration on a fine mesh wire sieve. Mononuclear cells (MNC) have been isolated through differential centrifugation on Lymphoprep (Nyegaard, Oslo, Norway) with continuous density gradient for 20 minutes at 450 g.
After 3 washes in HBSS, MNC were suspended at a concentration of 5×10^6 cells/ml in 199 medium (Gibco Ltd) supplemented with 1% BSA (Cohn Fr. V. Sigma, St. Louis), L-glutamine 2 mM and 10 mcg/ml of gentamycin sulfate (Schering, Klworth, N.J., U.S.A.) (TC 199-BSA). The cells have been used when their viability was over 95% at the Trypan Blue exclusion test.
Two hundred μl of the spleen MNC suspension have been mixed with the same volume of the tripeptide opportunely diluted with TC 199-BSA medium. The control cells have only been treated with the medium TC 199-BSA. […] containing 5% CO2, then washed twice with HBSS containing 5% heat-inactivated neonatal calf serum (Gibco) (HBSSS-CS) and finally resuspended in the same medium at a concentration of 10^6 cells/ml.
The expression of Thy 1.2 antigen was analyzed by IF using and anti-Thy 1.2 monoclonal antibody conjugated with fluorescein (Bio-Yeda, supplied by Technogenetics, S. Mauro Torinese, Italy) at the concentration of 2 mcg/10^6 cells. The cells have been incubated with the antibody for 30 minutes at 4° C.
After three washes in HBSS, the cells have been resuspended in the same medium and observed with a Leitz Orthomat microscope equipped with epiillumination.
At least 300 cells have been counted in each evaluation.

[4] = test system: pure human T lymphocytes, without macrophages; assay: Lymphokine production by pure human T lymphocytes without macrophages (+IL-1): BCGF activity; assay type: cell-based
From the text: (§1) The supernatants have been collected, filtered (0.2 μm) and assayed for the presence of IL-2 or BCGF activity, by adding them at different concentrations to fresh T lymphocytes or to long term cultured B cells. The proliferating activity of these cells, dependent on the presence of the respective growth factor, has been evaluated through 3H-thymidine incorporation.
(§2) The lymphokine production by human T lymphocytes purified through […] on nylon wool column has been evaluated with the same methods as in the previous experiment.
(§3) In order to obviate the lack of macrophages, recombinant IL-1 β (Genzyme) has been added at the concentration of 25 Units/ml.

[5] = test system: pure human T lymphocytes, without macrophages; assay: Lymphokine production by pure human T lymphocytes without macrophages (+IL-1): TCGF activity; assay type: cell-based
From the text: as §1, §2, §3

[6] = 1 mcg/ml, 3.125% of supernatant
[7] = 10 mcg/ml, 3.125% of supernatant
[8] = 10 mcg/ml, 6.25% of supernatant
[9] = 10 mcg/ml, 12.5% of supernatant

N=C(N)NCCC[C@H](N)C(=O)NCC(=O)N[C@@H](CC(=O)O)C(=O)O [ARG--GLY--ASP, L-Arginyl-glycyl-L-aspartic acid]
mean number of metastases ([1]; 3 mg/mouse i.v. together with 2×10^5 melanoma cells, lungs after 14 days, controls above 500/mouse): 173 /mouse | change of mean number of metastases vs controls ([1]; 3 mg/mouse i.v., 7×10^4 tumour cells): -69% | mean number of metastases ([1]; 3 mg/mouse i.v., 7×10^4 tumour cells, controls 21.6): 6.8 | G2 + M % cells, difference from T + PHA (Human T lymphocytes): +6.12 | Go-Gl % cells, difference from T + PHA (Human T lymphocytes): -5.67 | S % cells, difference from T + PHA (Human T lymphocytes): -1.15 | CELL PHASES G2 + M % CELLS (Human T lymphocytes; T + PHA 6.02): 12.14% | CELL PHASES S % CELLS (Human T lymphocytes; T + PHA 30.61): 29.46% | CELL PHASES Go-Gl % CELLS (Human T lymphocytes; T + PHA 63.36): 57.69% | PHA-induced human T lymphocyte activation (RNA synthesis) ([2]; 24 hours, 0.5% PHA): able to increase | RNA synthesis Δ % ([2]; peptide 0.0001 mcg/ml): -3% | RNA synthesis, 3H-uridine c.p.m. (mean) ([2]; peptide 0.0001 mcg/ml, 24 hours, 0.5% PHA): 3703 c.p.m. | RNA synthesis Δ % ([2]; peptide 0.001 mcg/ml): -2% | RNA synthesis, 3H-uridine c.p.m. (mean) ([2]; peptide 0.001 mcg/ml, 24 hours, 0.5% PHA): 3741 c.p.m. | RNA synthesis Δ % ([2]; peptide 0.01 mcg/ml): +11% | RNA synthesis, 3H-uridine c.p.m. (mean) ([2]; peptide 0.01 mcg/ml, 24 hours, 0.5% PHA): 4259 c.p.m. | RNA synthesis Δ % ([2]; peptide 0.1 mcg/ml): +18% | RNA synthesis, 3H-uridine c.p.m. (mean) ([2]; peptide 0.1 mcg/ml, 24 hours, 0.5% PHA): 4516 c.p.m. | RNA synthesis Δ % ([2]; peptide 1 mcg/ml): +6% | RNA synthesis, 3H-uridine c.p.m. (mean) ([2]; peptide 1 mcg/ml, 24 hours, 0.5% PHA): 4068 c.p.m. | RNA synthesis Δ % ([2]; peptide 10 mcg/ml): +9% | RNA synthesis, 3H-uridine c.p.m. (mean) ([2]; peptide 10 mcg/ml, 24 hours, 0.5% PHA): 4199 c.p.m. | VARIATION of % THY 1.2 + cells ([3]; 0.1 μg/ml, 3 hours of incubation): +3.3 | % THY 1.2 + CELLS ([3]; 0.1 μg/ml, 3 hours of incubation, control 22.0): 25.3% | VARIATION of % THY 1.2 + cells ([3]; 1 μg/ml, 3 hours of incubation): +5.1 | % THY 1.2 + CELLS ([3]; 1 μg/ml, 3 hours of incubation, control 22.0): 27.1% | VARIATION of % THY 1.2 + cells ([3]; 10 μg/ml, 3 hours of incubation): +9.4 | % THY 1.2 + CELLS ([3]; 10 μg/ml, 3 hours of incubation, control 22.0): 31.4% | VARIATION of % THY 1.2 + cells ([3]; 10 μg/ml, 18 hours of incubation): +9.5 | % THY 1.2 + CELLS ([3]; 10 μg/ml, 18 hours of incubation, control 17.0): 26.5% | VARIATION of % THY 1.2 + cells ([3]; 100 μg/ml, 3 hours of incubation): +7.4 | % THY 1.2 + CELLS ([3]; 100 μg/ml, 3 hours of incubation, control 22.0): 29.4% | VARIATION of % THY 1.2 + cells ([3]; 100 μg/ml, 18 hours of incubation): +4.7 | % THY 1.2 + CELLS ([3]; 100 μg/ml, 18 hours of incubation, control 17.0): 21.7% | VARIATION of % THY 1.2 + cells ([3]; 200 μg/ml, 3 hours of incubation): +5.9 | % THY 1.2 + CELLS ([3]; 200 μg/ml, 3 hours of incubation, control 22.0): 27.9% | optimum concentration for Thy 1.2 induction ([3]; in vitro): 10 µg/mL | BCGF activity Δ % [4, 6]: +94% | BCGF ACTIVITY c.p.m. ([4]; 1 mcg/ml, 3.125% of supernatant, T + PHA + IL-1 318): 618 c.p.m. | BCGF activity Δ % ([4]; 1 mcg/ml, 6.25% of supernatant): +9% | BCGF ACTIVITY c.p.m. ([4]; 1 mcg/ml, 6.25% of supernatant, T + PHA + IL-1 582): 634 c.p.m. | BCGF activity Δ % ([4]; 1 mcg/ml, 12.5% of supernatant): +141% | BCGF ACTIVITY c.p.m. ([4]; 1 mcg/ml, 12.5% of supernatant, T + PHA + IL-1 1104): 2663 c.p.m. | BCGF activity Δ % ([4]; 1 mcg/ml, 25% of supernatant): +106% | BCGF ACTIVITY c.p.m. ([4]; 1 mcg/ml, 25% of supernatant, T + PHA + IL-1 2507): 5172 c.p.m. | BCGF activity Δ % ([4]; 1 mcg/ml, 50% of supernatant): +95% | BCGF ACTIVITY c.p.m. ([4]; 1 mcg/ml, 50% of supernatant, T + PHA + IL-1 5056): 9837 c.p.m. | BCGF activity Δ % [4, 7]: +147% | BCGF ACTIVITY c.p.m. ([4]; 10 mcg/ml, 3.125% of supernatant, T + PHA + IL-1 318): 784 c.p.m. | BCGF activity Δ % [4, 8]: +49% | BCGF ACTIVITY c.p.m. ([4]; 10 mcg/ml, 6.25% of supernatant, T + PHA + IL-1 582): 866 c.p.m. | BCGF activity Δ % [4, 9]: +171% | BCGF ACTIVITY c.p.m. ([4]; 10 mcg/ml, 12.5% of supernatant, T + PHA + IL-1 1104): 2997 c.p.m. | BCGF activity Δ % ([4]; 10 mcg/ml, 25% of supernatant): +173% | BCGF ACTIVITY c.p.m. ([4]; 10 mcg/ml, 25% of supernatant, T + PHA + IL-1 2507): 6849 c.p.m. | BCGF activity Δ % ([4]; 10 mcg/ml, 50% of supernatant): +125% | BCGF ACTIVITY c.p.m. ([4]; 10 mcg/ml, 50% of supernatant, T + PHA + IL-1 5056): 11364 c.p.m. | effect on lymphokine production by pure T lymphocytes ([4]; both for IL-2 and BCGF, IL-1 β 25 Units/ml): comparable with that of the other reference compounds | TCGF activity Δ % [5, 6]: +17% | TCGF ACTIVITY c.p.m. ([5]; 1 mcg/ml, 3.125% of supernatant, T + PHA + IL-1 1696): 1984 c.p.m. | TCGF activity Δ % ([5]; 1 mcg/ml, 6.25% of supernatant): +145% | TCGF ACTIVITY c.p.m. ([5]; 1 mcg/ml, 6.25% of supernatant, T + PHA + IL-1 2817): 6893 c.p.m. | TCGF activity Δ % ([5]; 1 mcg/ml, 12.5% of supernatant): +259% | TCGF ACTIVITY c.p.m. ([5]; 1 mcg/ml, 12.5% of supernatant, T + PHA + IL-1 3663): 13147 c.p.m. | TCGF activity Δ % ([5]; 1 mcg/ml, 25% of supernatant): +209% | TCGF ACTIVITY c.p.m. ([5]; 1 mcg/ml, 25% of supernatant, T + PHA + IL-1 4812): 14862 c.p.m. | TCGF activity Δ % ([5]; 1 mcg/ml, 50% of supernatant): +149% | TCGF ACTIVITY c.p.m. ([5]; 1 mcg/ml, 50% of supernatant, T + PHA + IL-1 6297): 15654 c.p.m. | TCGF activity Δ % [5, 7]: +2% | TCGF ACTIVITY c.p.m. ([5]; 10 mcg/ml, 3.125% of supernatant, T + PHA + IL-1 1696): 1736 c.p.m. | TCGF activity Δ % [5, 8]: +125% | TCGF ACTIVITY c.p.m. ([5]; 10 mcg/ml, 6.25% of supernatant, T + PHA + IL-1 2817): 6342 c.p.m. | TCGF activity Δ % [5, 9]: +279% | TCGF ACTIVITY c.p.m. ([5]; 10 mcg/ml, 12.5% of supernatant, T + PHA + IL-1 3663): 13874 c.p.m. | TCGF activity Δ % ([5]; 10 mcg/ml, 25% of supernatant): +128% | TCGF ACTIVITY c.p.m. ([5]; 10 mcg/ml, 25% of supernatant, T + PHA + IL-1 4812): 10968 c.p.m. | TCGF activity Δ % ([5]; 10 mcg/ml, 50% of supernatant): +113% | TCGF ACTIVITY c.p.m. ([5]; 10 mcg/ml, 50% of supernatant, T + PHA + IL-1 6297): 13427 c.p.m.
